Tested on: acute high-lipid mouse model
Assay: Acute high-lipid mouse model resulted from egg yolk emulsion injection: serum cholesterol and triglycerides
Format: in vivo, ICR mice
Conditions: for T-cho / Trig: ICR mice, oral 1 time/d for 14 d, blood 20 h after ip 75% egg yolk emulsion; for T-cho / Trig / Reduction rate of cholesterol / Reduction rate of triglyceride: dose 2 mg/mouse; for Reduction rate of cholesterol / Reduction rate of triglyceride: vs model mouse group, 14 d; for blood-lipid-lowering effect on the mouse model of high blood lipid caused by the egg yolk emulsion: after two weeks of oral administration, result in words
Description: The Treatment Efficiency of Blood-Lipid-Lowering Traditional Chinese Medicine Compositions Having Different Component Proportions on the Acute High-Lipid Mouse Models Resulted from Egg Yolk Emulsion Injection Male ICR mice of 20 g˜22 g are divided into several groups after 5 d adaptive feeding: control group, fed with normal saline; model group, fed with normal saline; positive control group, fed with Xuezhikang of 1000 mg/kg.

Compound | T-cho [mmol/L] | Trig [mmol/L] | Reduction rate of cholesterol [%] | Reduction rate of triglyceride [%] | blood-lipid-lowering effect on the mouse model of high blood lipid caused by the egg yolk emulsion
C[C@@H]1CC[C@H]2[C@@H](C)C(=O)O[C@@H]3O[C@@]4(C)CC[C@@H]1[C@]32OO4 [Artemisinin, artemisinin] | 6.10 ± 3.20 | 8.90 ± 4.00 | 25.1 | 12.9 | –
C[C@H]1[C@H](OC(=O)CCC(=O)O)O[C@@H]2O[C@@]3(C)CC[C@H]4[C@H](C)CC[C@@H]1[C@@]24OO3 [Artesunate, artesunate] | 8.32 ± 1.09 | 10.72 ± 2.68 | −2.21 | −4.89 | neither ursolic acid nor artesunate had the blood-lipid-lowering effect
C[C@H]1[C@H](C)CC[C@]2(C(=O)O)CC[C@]3(C)C(=CC[C@@H]4[C@@]5(C)CC[C@H](O)C(C)(C)[C@@H]5CC[C@]43C)[C@H]12 [Ursolic acid, ursolic acid] | 9.11 ± 1.49 | 13.37 ± 3.63 | −11.92 | −30.82 | neither ursolic acid nor artesunate had the blood-lipid-lowering effect

Reference: patent publication US20120041058A1, “COMPOSITION OF TRADITIONAL CHINESE MEDICINE FOR REDUCING BLOOD FAT AND PREPARATION METHOD THEREOF” (ANJI GREEN LIFE BIOTECH CO., LTD., priority 2009, published 2012)
